According to US8841325B2, “Immunomodulatory compounds for the restoration of vitamin D sensitivity in vitamin D resistant tumor cells” (Celgene Corporation, priority 2009, dated 2014):

Experiments:
Format in all cases: cell-based
MCF-7 cells = assay: Cell growth by Sulphorhodamine B (SRB) assay, MCF-7; conditions: for effect on cell growth: single agent, Thalidomide 0.01-100 μM, CC-4047 and lenalidomide 0.001-10 μM, FIG. 6B
Method: Cells were seeded in 24 wells plates at a density of 10^4 cells per well and allowed to adhere for 24 hours. […] Each treatment was carried out for up to 7 days, but renewed every 2 days. Cell growth was then determined by Sulphorhodamine B (SRB) assay, measuring absorbance at 550 nm.
After 6 days treatment, cells were seeded in 24 well plates at a density of 1×10^4 cells/well. After 24 h cells were treated with reagents or vehicle for up to six days. Cells were treated for up to 6 days with log doses of Thalidomide (0.1 μM up to 100 μM), pomalidomide and lenalidomide (0 μM up to 10 μM). At the end of each experiment, cells were fixed to the bottom of the well by addition of ice-cold 50% w/v trichloroacetic acid (TCA) to give a final concentration of 10% TCA. Plates were incubated at 4° C. for 30 minutes and then washed with distilled water. Plates were allowed to air-dry at room temperature before staining with 0.4% w/v SRB in 1% v/v acetic acid and incubated for 15 minutes on a shaker. The plates were then extensively washed with 1% acetic acid to remove unbound dye and were again allowed to air-dry at room temperature. Incorporated dye was solubilised with 200 μl […] Tris base. 100 μl aliquots were transferred to a 96 well plate and absorbance at 550 nm was determined

MDA-MB-231 cells = assay: Annexin V/PI staining analysed by FACS; conditions: for necrosis and apoptosis activation (propidium iodide and Annexin V staining): 1 μM lenalidomide or 100 nM 1,25-D3 alone; for necrosis and apoptosis activation (propidium iodide and Annexin V staining) / apoptosis assessed by Annexin V or PI staining: up to 6 days; for apoptosis assessed by Annexin V or PI staining: single agent: 1 nM compound or 100 nM 1,25 D3 alone
Method: Cells were seeded into 6 well plates at a density of 2×10^6 cells/well. Cells were treated with 1 μl/mL DMSO (control) or 1 nM 1-oxo-2-(2,6-dioxopiperidin-3-yl)-4-aminoisoindoline and 100 nM 1,25 D3, each alone or in combination for up to 6 days. Medium was removed by EDTA treatment, and cells were washed twice with ice-cold PBS. Cells were then resuspended into the buffer at a dilution of 1×10^6 cells/mL. 10^5 cells were then stained with Annexin V and Propidium Iodide (“PI”). Staining was analyzed by FACS. Results were expressed as the percentage of control Annexin V or PI staining where the control was cells treated with DMSO only. Results were from triplicate wells.
To assess the nature of MDA-MB-231 cell death (apoptosis or necrosis) induced by co-treatment of lenalidomide/1, 25-D3 cells were seeded into 25 cm2 flasks at a density of 2×10^6 cells/flask. […] Medium was removed by EDTA treatment and cells were washed twice with ice-cold PBS. Cells were then resuspended into the buffer at a dilution of 1×10^6 cells/ml. 10^5 cells were then stained with Annexin V and Iodure Propidium. Staining was analysed by FACS.
Cells were also treated with 0.1% DMSO as a control. […] Cells treated with 0.1% DMSO were used as a control (day 0). Cell lysates were probed for cleaved-PARP(C-PARP) and total PARP (T-PARP). Data shown are representative of three identical experiments.

HBL-100 cells = assay: Cell viability by neutral red assay, HBL-100; conditions: up to 6 days
Method: After 6 days treatment, cells were seeded into 24 well plates at a density of 1×10^4 cells/wells. After 24 h, cells were treated with reagents or vehicle for up to six days. At the end of the incubation period, medium was removed and cells were incubated with neutral red solution (40 μg/ml in phenol red and serum free DMEM) for 2 h at 37° C. After removal of the neutral red solution, wells were rinsed once with 1 ml 4% formal saline containing 0.5% CaCl2. Plates were inverted on paper towel to drain and 200 μl of elution fluid (1% acetic acid in 50% ethanol) was added. Following incubation at room temperature for 30 min with gentle shaking, absorbance at 550 nm was determined
In order to validate the previous results obtained in MDA-MB-231 cells, two other vitamin D resistant cell lines MCF-7/VD^R and HBL-100 cells, were investigated. First the effect of lenalidomide on these cells lines were investigated. To this end, cells were treated for up to 6 days with different concentrations of lenalidomide (0 μM up to 10 μM). Cell viability was measured by neutal red dye assay (FIG. 13).
(§1) More particularly, FIG. 13 illustrates the effects of lenalidomide treatment on MCF-7/VDR and HBL-100 viability. MCF-7/VDR and HBL-100 cells were treated for up to 6 days with different concentrations of lenalidomide (0 μM up to 10 μM). Cell viability was measured by neutral red dye assay. Results are mean of three independent experiments (each made in quadruplicate).
Cell viability was measured by neutral red dye assay (FIG. 14).
as §1, with “14” for “13”, “lenalidomide/1, 25-D3 co-treatment” for “lenalidomide treatment”, “(0.01” for “(0”, “1 μM) alone or in combination with different concentrations of 1, 25-D3 (0 for up to 1000 nM).” for “10 μM).”
To accomplish this, cells were treated for up to 6 days with different concentrations of a BCL-2 inhibitor, ABT-263 ([…]). Non-treated cells were used as a control. After 6 days of treatment, cell viability was measured by neutral red assay (FIG. 16). In the three cell lines, BCL-2 inhibition leads to cell death. The IC50 is almost equivalent in all cell lines (1 μM+/−0.2 μM).
More particularly, FIG. 16 illustrates the effects of BCL-2 inhibition on MCF-7VD^R and HBL-100 viability. MDA-MB-231, MCF-7/VD^R and HBL-100 cells were treated for up to 6 days with different concentrations of ABT-263 (0.2 up to 20 μM). Non-treated cells were used as a control. After 6 days of treatment, cell viability was measured by neutral red assay. Results are mean of three independent experiments (each made in quadruplicate).

[1] = lenalidomide 0.01-1 μM alone or in combination with 1,25-D3 0-1000 nM, FIG. 14, p>0.05

SMILES | effect on cell growth (MCF-7 cells; up to 6 days) | effect on cell growth (MCF-7 cells; up to 6 days, listed as lenalidomide) | apoptosis assessed by Annexin V and PI staining (MDA-MB-231 cells; 1 nM compound in combination with 100 nM 1,25 D3, up to 6 days, FIG. 5) | Annexin V staining (MDA-MB-231 cells; 1 μM lenalidomide co-treatment with 100 nM 1,25-D3, up to 6 days, FIG. 8B) | necrosis and apoptosis activation (propidium iodide and Annexin V staining) (MDA-MB-231 cells; FIG. 8B) | apoptosis assessed by Annexin V or PI staining (MDA-MB-231 cells; FIG. 5) | differences in viability (HBL-100 cells; lenalidomide 0 μM up to 10 μM, FIG. 13, p>0.05) | differences in viability (HBL-100 cells; [1]) | inhibition of growth (MCF-7 cells; 100 nM 1,25-D3 alone, up to 6 days, FIG. 7B) [%] | IC50 (MCF-7 cells; 1,25 D3 alone, read-out: dose giving IC50 inhibition) [nM]
Nc1cccc2c1CN(C1CCC(=O)NC1=O)C2=O (stereo not shown) [Lenalidomide, 1-oxo-2-(2,6-dioxopiperidin-3-yl)-4-aminoisoindoline] | do not Affect | no effect | significant increase in apoptosis | Annexin V staining was observed | no effects | no significant increase in apoptosis | No significant differences | No significant differences |  | 
C=C1/C(=C\C=C2/CCC[C@]3(C)[C@@H]([C@H](C)CCCC(C)(C)O)CC[C@@H]23)C[C@@H](O)C[C@@H]1O [1,25-D3, 1α,25-dihydroxyvitamin D3] |  |  |  |  | no effects | no significant increase in apoptosis |  | No significant differences | 30 | 100
